Laboratory results from patent US20100119483A1, “PEPTIDE VIRAL ENTRY INHIBITORS” (Schering Corporation, priority 2004, published 2010).
Values joined by “and” are separate entries in the source; they are usually repeats but may differ in a detail not shown here. Identical values can stand only once.

Tests used:
HCVpp = test: Wash off study, HCVpp entry under conditions A-D at 37° C. or 4° C.; assay type: cell-based, hepatitis C virus; details: for luciferase units: 37° C.; for luciferase units observed in the entry assay: 4° C., listed as V-2b
Protocol: To identify if the peptides of the invention bind to the cells and therefore inhibit entry, anti-CD81 antibody or peptide (SEQ ID NO: 77) was tested at four conditions: • (A) peptide or anti-CD81 antibody was pre-incubated with cells and virus separately, cells were washed and virus together with peptide was added; • (B) peptide or anti-CD81 antibody was pre-incubated with virus only first and then virus together with peptide was added to the cells; • (C) peptide or anti-CD81 antibody was preincubated with cells only and washed off, and then virus was added; and • (D) same as C except that virus was washed off after 1 hour of incubation.
The majority of difference seen before the 4-hour time-point is in line with the model wherein most of the entry events occur during the first four hours (data not shown). As expected, the RLU signal was reduced at earlier time points and lead to higher variation of the assay. […] In anticipating similar phenomena might exist with the peptide, we applied the one hour virus incubation in the following studies. In tables 19-22, condition D was identical to condition C except that virus was removed after 1 hour of incubation. […] Anti-CD81 antibody binds to CD81 expressed on the cells and therefore blocks HCVpp entry.
The data in tables 19 and 20 were generated in assays conducted at 37° C. The date generated in tables 21 and 22 were generated in assays conducted at 4° C. The numbers in each table (19-22) represent the luciferase units observed in the entry assay under each indicated condition.

HCV pseudoparticles = test: HCV pseudoparticle (HCVpp) entry assay in Huh7 hepatoma cells, luciferase readout; assay type: cell-based, hepatitis C virus; details: for RLU units: HCVpp
In short: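 Pseudoparticles carrying HCV E1/E2 on an HIV luciferase backbone were produced in 293T cells; peptide was pre-incubated 1 h at 37 °C with Huh7 cells, then virus added and luciferase read after 72 h. Dose-response used 10-point 3-fold titration from 100 ug/ml; envelope-less particles controlled non-specific entry.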

[1] = peptide 0.0457 ug/ml, condition A
[2] = peptide 0.0457 ug/ml, condition B
[3] = peptide 0.0457 ug/ml, condition C
[4] = peptide 0.1372 ug/ml, condition A
[5] = peptide 0.1372 ug/ml, condition B
[6] = peptide 0.1372 ug/ml, condition C
[7] = peptide 0.4115 ug/ml, condition A
[8] = peptide 0.4115 ug/ml, condition B
[9] = peptide 0.4115 ug/ml, condition C
[10] = peptide 1.2346 ug/ml, condition A
[11] = peptide 1.2346 ug/ml, condition B
[12] = peptide 1.2346 ug/ml, condition C
[13] = peptide 3.7037 ug/ml, condition A
[14] = peptide 3.7037 ug/ml, condition B
[15] = peptide 3.7037 ug/ml, condition C
[16] = peptide 11.1111 ug/ml, condition A
[17] = peptide 11.1111 ug/ml, condition C
[18] = peptide 33.3333 ug/ml, condition A
[19] = peptide 33.3333 ug/ml, condition B
[20] = peptide 33.3333 ug/ml, condition C

Substance: V-S-F-A-I-K-W-E-Y-V-L-L-L-F-L-L [SEQ ID NO: 77]
- luciferase units (HCVpp; peptide 0.0046 ug/ml (two lines), condition A): 74772 luciferase units and 76125 luciferase units and 57485 luciferase units and 58523 luciferase units
- luciferase units (HCVpp; peptide 0.0046 ug/ml (two lines), condition B): 65028 luciferase units and 60343 luciferase units and 57349 luciferase units and 51858 luciferase units
- luciferase units (HCVpp; peptide 0.0046 ug/ml (two lines), condition C): 40529 luciferase units and 45271 luciferase units and 37116 luciferase units and 32831 luciferase units
- luciferase units (HCVpp; [1]): 50460 luciferase units and 53231 luciferase units
- luciferase units (HCVpp; [2]): 47929 luciferase units and 53377 luciferase units
- luciferase units (HCVpp; [3]): 36956 luciferase units and 46680 luciferase units
- luciferase units (HCVpp; peptide 0.0457 ug/ml, condition D): 3531 luciferase units and 2785 luciferase units
- luciferase units (HCVpp; [4]): 44159 luciferase units and 41959 luciferase units
- luciferase units (HCVpp; [5]): 43468 luciferase units and 36136 luciferase units
- luciferase units (HCVpp; [6]): 34241 luciferase units and 44163 luciferase units
- luciferase units (HCVpp; peptide 0.1372 ug/ml, condition D): 2443 luciferase units and 4834 luciferase units
- luciferase units (HCVpp; [7]): 28106 luciferase units and 25559 luciferase units
- luciferase units (HCVpp; [8]): 26979 luciferase units and 31819 luciferase units
- luciferase units (HCVpp; [9]): 40225 luciferase units and 43467 luciferase units
- luciferase units (HCVpp; peptide 0.4115 ug/ml, condition D): 3257 luciferase units and 2555 luciferase units
- luciferase units (HCVpp; [10]): 21301 luciferase units and 21733 luciferase units
- luciferase units (HCVpp; [11]): 25204 luciferase units and 14452 luciferase units
- luciferase units (HCVpp; [12]): 36450 luciferase units and 40467 luciferase units
- luciferase units (HCVpp; [13]): 15025 luciferase units and 10613 luciferase units
- luciferase units (HCVpp; [14]): 15213 luciferase units and 12233 luciferase units
- luciferase units (HCVpp; [15]): 31857 luciferase units and 32265 luciferase units
- luciferase units (HCVpp; peptide 3.7037 ug/ml, condition D): 2974 luciferase units and 3707 luciferase units
- luciferase units (HCVpp; [16]): 12402 luciferase units and 6768 luciferase units
- luciferase units (HCVpp; peptide 11.1111 ug/ml, condition B): 10212 luciferase units and 6902 luciferase units
- luciferase units (HCVpp; [17]): 28818 luciferase units and 33022 luciferase units
- luciferase units (HCVpp; peptide 11.1111 ug/ml, condition D): 3302 luciferase units and 3259 luciferase units
- luciferase units (HCVpp; [18]): 6467 luciferase units and 6356 luciferase units
- luciferase units (HCVpp; [19]): 7146 luciferase units and 4501 luciferase units
- luciferase units (HCVpp; [20]): 23383 luciferase units and 19309 luciferase units
- luciferase units (HCVpp; peptide 33.3333 ug/ml, condition D): 2351 luciferase units and 2058 luciferase units
- luciferase units (HCVpp; peptide 100.0000 ug/ml, condition A (pre-incubated with cells and virus separately, cells washed)): 9216 luciferase units and 7419 luciferase units
- luciferase units (HCVpp; peptide 100.0000 ug/ml, condition B (pre-incubated with virus only)): 8074 luciferase units and 4093 luciferase units
- luciferase units (HCVpp; peptide 100.0000 ug/ml, condition C (pre-incubated with cells only, washed off)): 19088 luciferase units and 14073 luciferase units
- luciferase units (HCVpp; peptide 100.0000 ug/ml, condition D (as C, virus washed off after 1 hour)): 780 luciferase units and 1531 luciferase units
- luciferase units observed in the entry assay (HCVpp; peptide 0.0046 ug/ml, condition A): 22435 luciferase units and 18765 luciferase units and 17613 luciferase units and 22306 luciferase units
- luciferase units observed in the entry assay (HCVpp; peptide 0.0046 ug/ml, condition B): 26860 luciferase units and 23215 luciferase units and 23633 luciferase units and 21213 luciferase units
- luciferase units observed in the entry assay (HCVpp; peptide 0.0046 ug/ml, condition C): 13903 luciferase units and 13795 luciferase units and 14095 luciferase units and 10535 luciferase units
- luciferase units observed in the entry assay (HCVpp; [1]): 7498 luciferase units and 7299 luciferase units
- luciferase units observed in the entry assay (HCVpp; [2]): 6703 luciferase units and 9954 luciferase units
- luciferase units observed in the entry assay (HCVpp; [3]): 16101 luciferase units and 13757 luciferase units
- luciferase units observed in the entry assay (HCVpp; [4]): 5745 luciferase units and 7826 luciferase units
- luciferase units observed in the entry assay (HCVpp; [5]): 7670 luciferase units and 6880 luciferase units
- luciferase units observed in the entry assay (HCVpp; [6]): 9444 luciferase units and 10124 luciferase units
- luciferase units observed in the entry assay (HCVpp; [7]): 5517 luciferase units and 5574 luciferase units
- luciferase units observed in the entry assay (HCVpp; [8]): 4724 luciferase units and 3648 luciferase units
- luciferase units observed in the entry assay (HCVpp; [9]): 9027 luciferase units and 11381 luciferase units
- luciferase units observed in the entry assay (HCVpp; [10]): 3584 luciferase units and 5974 luciferase units
- luciferase units observed in the entry assay (HCVpp; [11]): 5542 luciferase units and 4382 luciferase units
- luciferase units observed in the entry assay (HCVpp; [12]): 6131 luciferase units and 6853 luciferase units
- luciferase units observed in the entry assay (HCVpp; [13]): 2824 luciferase units and 3255 luciferase units
- luciferase units observed in the entry assay (HCVpp; [14]): 3059 luciferase units and 3424 luciferase units
- luciferase units observed in the entry assay (HCVpp; [15]): 9414 luciferase units and 8570 luciferase units
- luciferase units observed in the entry assay (HCVpp; [16]): 2833 luciferase units and 2954 luciferase units
- luciferase units observed in the entry assay (HCVpp; [17]): 7352 luciferase units and 4725 luciferase units
- luciferase units observed in the entry assay (HCVpp; [18]): 1677 luciferase units and 2383 luciferase units
- luciferase units observed in the entry assay (HCVpp; [19]): 2900 luciferase units and 1914 luciferase units
- luciferase units observed in the entry assay (HCVpp; [20]): 8294 luciferase units and 8104 luciferase units
- luciferase units observed in the entry assay (HCVpp; peptide 100 ug/ml, condition A): 1924 luciferase units and 1845 luciferase units
- luciferase units observed in the entry assay (HCVpp; peptide 100 ug/ml, condition C): 5118 luciferase units and 8821 luciferase units
- inhibition compared to anti-CD81 antibody in the wash-off experiment (HCVpp; pre-incubated with cells at 37° C. and 4° C.): more inhibition
- inhibition at condition C (HCVpp; pre-incubated with cells only and washed off, then virus added): little inhibition
- RLU units (HCV pseudoparticles; peptide conc. 0.091515 log ug/ml, 1st and 2nd trial): 1044 RLU and 833 RLU
- RLU units (HCV pseudoparticles; peptide conc. 0.568636 log ug/ml, 1st and 2nd trial): 544 RLU and 500 RLU
- RLU units (HCV pseudoparticles; peptide conc. 2 log ug/ml, 1st and 2nd trial): 11 RLU and 10 RLU
- RLU units (HCV pseudoparticles; peptide conc. not given, 1st trial): 1494 RLU
- RLU units (HCV pseudoparticles; peptide conc. −0.38561 log ug/ml, 1st and 2nd trial): 1279 RLU and 1283 RLU
- RLU units (HCV pseudoparticles; peptide conc. −0.86273 log ug/ml, 1st and 2nd trial): 1866 RLU and 1762 RLU
- RLU units (HCV pseudoparticles; peptide conc. −1.33985 log ug/ml (three lines), 1st and 2nd trial): 2564 RLU and 2703 RLU and 2998 RLU and 3512 RLU and 2090 RLU and 3359 RLU
- HCVpp % inh (HCV pseudoparticles; peptide library screen, first screened at 100 ug/ml, cell entry inhibition vs uninhibited control): 96%
